Laboratory results published in the NIST ThermoML archive (doi:10.1021/acs.jced.5b00114).
Values joined by “and” are separate entries in the source; they are usually repeats but may differ in a detail not shown here. Identical values can stand only once.

Experiment: mn = molality of the nth substance listed, in mol/kg
Conditions: 101 kPa, Liquid; for viscosity: Capillary tube (Ostwald / Ubbelohde) method; for mass density: Vibrating tube method

Cc1ncc(CO)c(CO)c1O.Cl [5-hydroxy-6-methyl-3,4-pyridinedimethanol hydrochloride] + O
Conditions | mass density, 293.15 K | mass density, 303.15 K [kg/m3] | mass density, 313.15 K | mass density, 323.15 K [kg/m3] | viscosity, 293.15 K [mPa·s] | viscosity, 303.15 K | viscosity, 313.15 K | viscosity, 323.15 K [mPa·s]
m1 = 0.0999 | 1004.23 kg/m3 | 1001.56 | 998.03 kg/m3 | 993.8 | 1.044 | 0.829 mPa·s | 0.678 mPa·s | 0.568
m1 = 0.1 | 1004.23 kg/m3 | 1001.57 | 998.04 kg/m3 | 993.81 | 1.044 | 0.83 mPa·s | 0.679 mPa·s | 0.568
m1 = 0.1008 | 1004.28 kg/m3 | 1001.61 | 998.1 kg/m3 | 993.86 | 1.044 | 0.83 mPa·s | 0.679 mPa·s | 0.568
m1 = 0.1992 | 1010 kg/m3 | 1007.23 | 1003.65 kg/m3 | 999.27 | 1.084 | 0.861 mPa·s | 0.703 mPa·s | 0.587
m1 = 0.2016 | 1010.1 kg/m3 and 1010.09 kg/m3 | 1007.34 | 1003.75 kg/m3 and 1003.74 kg/m3 | 999.43 | 1.085 | 0.861 mPa·s | 0.704 mPa·s and 0.703 mPa·s | 0.587
m1 = 0.2025 | 1010.19 kg/m3 | 1007.42 | 1003.85 kg/m3 | 999.49 | 1.085 | 0.862 mPa·s | 0.704 mPa·s | 0.589
m1 = 0.3 | 1015.66 kg/m3 and 1015.67 kg/m3 | 1012.81 | 1009.15 kg/m3 | 1004.74 | 1.127 | 0.894 mPa·s and 0.893 mPa·s | 0.729 mPa·s | 0.608
m1 = 0.3014 | 1015.74 kg/m3 | 1012.88 | 1009.21 kg/m3 | 1004.83 | 1.127 | 0.894 mPa·s | 0.729 mPa·s | 0.609
m1 = 0.3999 | 1021.12 kg/m3 and 1021.11 kg/m3 | 1018.15 | 1014.45 kg/m3 | 1010.01 | 1.169 | 0.926 mPa·s | 0.755 mPa·s | 0.629
m1 = 0.4001 | 1021.16 kg/m3 | 1018.19 | 1014.46 kg/m3 | 1010.02 | 1.172 | 0.926 mPa·s | 0.755 mPa·s | 0.629
